Data reported in US20160279297A1, “METHODS FOR INHIBITING STENOSIS, OBSTRUCTION, OR CALCIFICATION OF A STENTED HEART VALVE OR BIOPROSTHESIS” (CONCIEVALVE LLC, priority 2013, published 2016).

What was measured:
neointima hyperplasia = details: stent coating, at four weeks; cited from earlier work
[1] = from biodegradable polylactic acid, follow-up of four years; cited from earlier work
[2] = test system: bovine pericardial bioprosthetic valve tissue; test: rabbit model with subcutaneously implanted bioprosthetic valve tissue: RNA expression and pannus formation; assay type: in vivo
[3] = rabbit model of experimental hypercholesterolemia, serum levels; assay type: in vivo; details: cholesterol-fed rabbits, atorvastatin 3.0 mg/kg daily orally
Text: An experimental animal was developed to test for the dosing of the atorvastatin to reduce the inflammation and also the pannus formation on the valve leaflet. The experimental procedure is as follows, Male New Zealand white rabbits weighing 2.5-3.0 kg were assigned to a control (N=10) or 0.5% cholesterol-fed group (N=10) or to a cholesterol-fed and atorvastatin group (N=10). All animals were fed ad libitum for 12 weeks. Control rabbits were fed a standard diet. Cholesterol-fed animals received a diet supplemented with 0.5% (w/w) cholesterol (Purina Mills, Woodmont, Ind.), and the cholesterol-fed and atorvastatin group were given atorvastatin 3.0 mg/kg daily orally for the statin treatment arm^1. Prior to the initiation of the diet the rabbits underwent surgical implantation of bovine pericardial bioprosthetic valve tissue (Perimount, Edwards, Irvine Calif.) using intramuscular ketamine/xylazine (40/5 mg/kg). Following this 12-week period, the rabbits were anesthetized using intramuscular ketamine/xylazine (40/5 mg/kg) and then underwent euthanasia with intracardiac administration of 1 ml of Beuthanasia. Immediately after removal from the subcutaneous implantation site the bioprosthetic valves were fixed in 4% buffered formalin for 24 hours and then embedded in paraffin. Paraffin embedded sections (6 μm) were cut and stained with Masson Trichrome stain for histopathologic exam. […]

p42/44 = p42/44 protein expression by western blot; assay type: cell-based; details: FIG. 16 Panel C
Mesenchymal valve cells = test: tritiated thymidine incorporation, PDGF-stimulated cell proliferation; assay type: cell-based
Description: Mesenchymal valve cells were isolated from the cardiac aortic valves by collagenase digestion. Cells were cultured in medium 199 with 10% (v/v) heat-inactivated fetal bovine serum at 37 C in a humidified atmosphere of 5% CO2 in air. Cells were utilized between the 3rd and 7th passage. Mesenchymal cells were grown to confluence in 24-well plates and then growth-arrested by incubation in serum-free medium for 24 hours. The test materials were added to the wells and incubated for 18 hours. Test materials include PDGF at concentrations (10-40 ug/ml) PDGF Sigma in combination with a MEK inhibitor (PD0325901 Mek Inhibitor) (2.5-10 ug/ml). The wells were pulsed for 4 hours with 1 μCi/well of tritiated thymidine. Newly synthesized DNA will be then identified by incorporation of radioactivity into acid-precipitated cellular material. All samples were assayed in quadruplicate wells. The positive control wells were given PDGF (10 ug/ml) Sigma (St. Louis, Mo.), the negative control wells received serum-free medium.

[4] = atorvastatin at 80 mg per day equivalent to human dosing, FIG. 15

CC(=O)O[C@H]1C(=O)[C@@]2(C)[C@H]([C@H](OC(=O)c3ccccc3)[C@]3(O)C[C@H](OC(=O)[C@H](O)[C@@H](NC(=O)c4ccccc4)c4ccccc4)C(C)=C1C3(C)C)[C@]1(OC(C)=O)CO[C@@H]1C[C@@H]2O [Paclitaxel]
neointima hyperplasia (neointima hyperplasia): inhibits

CCOCCO[C@@H]1CC[C@@H](C[C@@H](C)[C@@H]2CC(=O)[C@H](C)/C=C(\C)[C@@H](O)[C@@H](OC)C(=O)[C@H](C)C[C@H](C)/C=C/C=C/C=C(\C)[C@@H](OC)C[C@@H]3CC[C@@H](C)[C@@](O)(O3)C(=O)C(=O)N3CCCC[C@H]3C(=O)O2)C[C@H]1OC [biolimus]
major adverse clinical events versus sirolimus eluting stents [1]: not inferior and potentially better

CC(C)c1c(C(=O)Nc2ccccc2)c(-c2ccccc2)c(-c2ccc(F)cc2)n1CC[C@@H](O)C[C@@H](O)CC(=O)O [Atorvastatin]
stem cell RNA expression on the valves [2, 4]: reduction
stem cell mediated pannus formation [2, 4]: reduction
therapeutic benefit at the lower dosing ranges ([2]; previous experiments, 20 mg a day and 40 mg a day): zero therapeutic benefit
ckit stem cell adhering to the valve ([2]; rabbit, in vivo): reduces
hsCRP serum levels ([3]; 12 weeks): 7.8±8.7
serum cholesterol levels ([3]; 12 weeks (equivalent to 80 mg a day for humans)): 824.0 ± 152.1 mg/dL

PDGF
p42/44 protein expression (p42/44): increase
mesenchymal cell proliferation (Mesenchymal valve cells; PDGF dose response 10-40 ug/ml, FIG. 16 Panel A): proliferating

O=C(NOC[C@H](O)CO)c1ccc(F)c(F)c1Nc1ccc(I)cc1F [PD0325901]
p42/44 protein expression (p42/44): inhibition
dosing range with inhibition effect on cell proliferation (Mesenchymal valve cells; PDGF 10 ug/ml induced proliferation, tested range 2.5-10 ug/ml, 18 hours, FIG. 16 Panel B): 5 to 10 µg/mL
